Test results reported in ChEMBL document CHEMBL1150839, “Dihydroagarofuran sesquiterpene alkaloids from Maytenus putterlickoides” (J Nat Prod, 2001).
Active and inactive are the calls of the source. No cut-off for these calls is given here.

Tests used:
[1] = Inhibition of PKC
Artemia = assay: Toxicity in brine shrimp; assay type: organism-based; settings: in vivo

inhibition [1] | SMILES | Activity (Artemia)
inactive | CC(=O)OC[C@]12[C@H](O)[C@H](OC(=O)c3cccnc3)[C@@H]3[C@@H](OC(C)=O)[C@@]14O[C@@]3(C)COC(=O)c1cccnc1[C@@H](C)[C@H](C)C(=O)O[C@@H]([C@H](OC(C)=O)[C@@H]2OC(C)=O)[C@]4(C)O [PUTTERINE A] | Toxic
inactive | CC(=O)OC[C@]12[C@H](O)[C@H](OC(=O)c3cccnc3)[C@@H]3[C@@H](OC(C)=O)[C@@]14O[C@@]3(C)COC(=O)c1cccnc1[C@@H](C)[C@H](C)C(=O)O[C@@H]([C@H](OC(=O)C(C)C)[C@@H]2OC(C)=O)[C@]4(C)O [PUTTERINE B] | Toxic
